Assay results published in patent publication US10125111B2, “Benzofuran compounds for the treatment of hepatitis C” (BRISTOL-MYERS SQUIBB COMPANY, priority 2015, dated 2018).
Where two headings read alike, the source gives them in different places.

Tested on: genotype 1b (Con-1) HCV replicon
Experiment: HCV Replicon Luciferase Assay
Format: cell-based
Conditions: Hepatitis C virus, 72 h, Huh-7 genotype 1b replicon, Renilla luciferase, 3 days incubation
Protocol: The cell lines used to evaluate compounds consist of a human hepatocyte derived cell line (Huh-7) that constitutively expresses a genotype 1b (Con-1) HCV replicon or a genotype 1b (Con-1) HCV replicon with an asparagine replacing the cysteine at amino acid 316, or a genotype 2a (JFH-1) replicon, containing a Renilla luciferase reporter gene. These cells were maintained in Dulbecco's modified Eagle medium (DMEM) containing 10% FBS, 100 U/mL penicillin/streptomycin and 1.0 mg/mL G418.
To evaluate compound efficacy, titrated compounds were transferred to sterile 384-well tissue culture treated plates, and the plates were seeded with HCV replicon cells (50 μL at a density of 2.4×10^3 cells/well) in DMEM containing 4% FBS (final DMSO concentration at 0.5%). After 3 days incubation at 37° C., cells were analyzed for Renilla Luciferase activity using the EnduRen substrate (Promega cat #E6485) according to the manufacturer's directions. Briefly, the EnduRen substrate was diluted in DMEM and then added to the plates to a final concentration of 7.5 μM. The plates were incubated for at least 1 h at 37° C. then read on a Viewlux Imager (PerkinElmer) using a luminescence program. The 50% effective concentration (EC50) was calculated using the four-parameter logistic Formula noted above.
Compound EC50 data is expressed as A: <100 nM; B=100-1000 nM; C>1000 nM).

Compound | EC50 (read-out: EC50 1b (class)) [µM] | EC50 (read-out: EC50 (uM) 1b) [µM]
CNC(=O)c1c(-c2ccc(F)cc2)oc2cc(N(CC#N)S(C)(=O)=O)c(-c3cccc(C(=O)OC)c3)cc12 [Compound 1001] | < 0.1 | 0.0578
CNC(=O)c1c(-c2ccc(F)cc2)oc2cc(N(CC#N)S(C)(=O)=O)c(-c3cccc(C(=O)NC(C)(C)C(F)(F)F)c3)cc12 [Compound 1002] | < 0.1 | 
CNC(=O)c1c(-c2ccc(F)cc2)oc2cc(N(CC3CC3)S(C)(=O)=O)c(-c3cccc(C(=O)OC)c3)cc12 [Compound 2001] | < 0.1 | 
CNC(=O)c1c(-c2ccc(F)cc2)oc2cc(N(CC3CC3)S(C)(=O)=O)c(-c3cccc(C(=O)O)c3)cc12 [Compound 2002] | > 1 | 7.55
CNC(=O)c1c(-c2ccc(F)cc2)oc2cc(N(CC3CC3)S(C)(=O)=O)c(-c3cccc(C(=O)NC(C)(C)C(F)(F)F)c3)cc12 [Compound 2003] | < 0.1 | 
CNC(=O)c1c(-c2ccc(F)cc2)oc2cc(N(CC3CC3)S(C)(=O)=O)c(-c3cccc(C(=O)NC(CF)(CF)CF)c3)cc12 [Compound 2004] | < 0.1 | 
CNC(=O)c1c(-c2ccc(F)cc2)oc2cc(N(CC3CC3)S(C)(=O)=O)c(-c3cccc(C(=O)NC(C)(C)C#N)c3)cc12 [Compound 2005] | < 0.1 | 0.0147
[2H]C([2H])([2H])C(NC(=O)c1cccc(-c2cc3c(C(=O)NC)c(-c4ccc(F)cc4)oc3cc2N(CC2CC2)S(C)(=O)=O)c1)(C([2H])([2H])[2H])C([2H])([2H])[2H] [Compound 2006] | < 0.1 | 
CNC(=O)c1c(-c2ccc(F)cc2)oc2cc(N(CCF)S(C)(=O)=O)c(-c3cccc(C(=O)NC(C)(C)C(F)(F)F)c3)cc12 [Compound 3003] | < 0.1 | 
CNC(=O)c1c(-c2ccc(F)cc2)oc2cc(N(CCF)S(C)(=O)=O)c(-c3cccc(C(=O)NC(CF)(CF)CF)c3)cc12 [Compound 3004] | < 0.1 | 
CNC(=O)c1c(-c2ccc(F)cc2)oc2cc(N(CCF)S(C)(=O)=O)c(-c3cccc(C(=O)NC(C)(C)C#N)c3)cc12 [Compound 3005] | < 0.1 | 0.005
[2H]C([2H])([2H])C(NC(=O)c1cccc(-c2cc3c(C(=O)NC)c(-c4ccc(F)cc4)oc3cc2N(CCF)S(C)(=O)=O)c1)(C([2H])([2H])[2H])C([2H])([2H])[2H] [Compound 3006] | < 0.1 | 
CC[C@@H](NC(=O)c1cccc(-c2cc3c(C(=O)NC)c(-c4ccc(F)cc4)oc3cc2N(CCF)S(C)(=O)=O)c1)C1CC1 [Compound 3007] | < 0.1 | 0.0057
CC[C@H](NC(=O)c1cccc(-c2cc3c(C(=O)NC)c(-c4ccc(F)cc4)oc3cc2N(CCF)S(C)(=O)=O)c1)C1CC1 [Compound 3008] | < 0.1 | 
CNC(=O)c1c(-c2ccc(F)cc2)oc2cc(N(CCF)S(C)(=O)=O)c(-c3cccc(C(=O)N[C@@H](C)C4CC4)c3)cc12 [Compound 3009] | < 0.1 | 
CNC(=O)c1c(-c2ccc(F)cc2)oc2cc(N(CCF)S(C)(=O)=O)c(-c3cccc(C(=O)NC(C4CC4)C4CC4)c3)cc12 [Compound 3010] | < 0.1 | 0.0056
CNC(=O)c1c(-c2ccc(F)cc2)oc2cc(N(CCF)S(C)(=O)=O)c(-c3cccc(C(=O)NC4(C#N)CC4)c3)cc12 [Compound 3011] | < 0.1 | 
CNC(=O)c1c(-c2ccc(F)cc2)oc2cc(N(CCF)S(C)(=O)=O)c(-c3cccc(C(=O)NCC(F)(F)C(F)(F)F)c3)cc12 [Compound 3012] | < 0.1 | 0.0032
CNC(=O)c1c(-c2ccc(F)cc2)oc2cc(N(CCF)S(C)(=O)=O)c(-c3cccc(C(=O)NC(C)(C)CF)c3)cc12 [Compound 3013] | < 0.1 | 
CNC(=O)c1c(-c2ccc(F)cc2)oc2cc(N(CCF)S(C)(=O)=O)c(-c3cccc(C(=O)NC(C)(C)C(=O)OC)c3)cc12 [Compound 3014] | < 0.1 | 

Compound | EC50 (read-out: EC50 1b (class)) [µM] | EC50 (read-out: EC50 (uM) 1b) [µM]
CNC(=O)c1c(-c2ccc(F)cc2)oc2cc(N(CCF)S(C)(=O)=O)c(-c3cccc(C(=O)NCC(C)(C)C)c3)cc12 [Compound 3015] | < 0.1 | 
CNC(=O)c1c(-c2ccc(F)cc2)oc2cc(N(CCF)S(C)(=O)=O)c(-c3cccc(C(=O)NC(C)(C)C)c3)cc12 [Compound 3016] | < 0.1 | 
CNC(=O)c1c(-c2ccc(F)cc2)oc2cc(N(CCF)S(C)(=O)=O)c(-c3cccc(C(=O)N4CCC(C)(C)C4)c3)cc12 [Compound 3017] | < 0.1 | 0.0063
CNC(=O)c1c(-c2ccc(F)cc2)oc2cc(N(CCF)S(C)(=O)=O)c(-c3cccc(C(=O)N4CCCC4c4ccc(Cl)cc4)c3)cc12 (stereo not drawn) [Compound 3018] | < 0.1 | 
CNC(=O)c1c(-c2ccc(F)cc2)oc2cc(N(CCF)S(C)(=O)=O)c(-c3cccc(C(=O)N4CCN(C)CC4c4ccccc4)c3)cc12 (stereo not drawn) [Compound 3019] | < 0.1 | 
CNC(=O)c1c(-c2ccc(F)cc2)oc2cc(N(CCF)S(C)(=O)=O)c(-c3cccc(C(=O)N4CCN(c5ccc(Cl)cc5)CC4)c3)cc12 [Compound 3020] | < 0.1 | 0.0094
CNC(=O)c1c(-c2ccc(F)cc2)oc2cc(N(CCF)S(C)(=O)=O)c(-c3cccc(C(=O)N[C@H](C)C(F)(F)F)c3)cc12 [Compound 3021] | < 0.1 | 
CNC(=O)c1c(-c2ccc(F)cc2)oc2cc(N(CCF)S(C)(=O)=O)c(-c3cccc(C(=O)N4CCCC4c4cccnc4)c3)cc12 (stereo not drawn) [Compound 3022] | < 0.1 | 
CNC(=O)c1c(-c2ccc(F)cc2)oc2cc(N(CCF)S(C)(=O)=O)c(-c3cccc(C(=O)N4[C@H](C)CC[C@H]4C)c3)cc12 [Compound 3023] | < 0.1 | 
CNC(=O)c1c(-c2ccc(F)cc2)oc2cc(N(CCF)S(C)(=O)=O)c(-c3cccc(C(=O)N4CCCC4C)c3)cc12 (stereo not drawn) [Compound 3024] | < 0.1 | 
CNC(=O)c1c(-c2ccc(F)cc2)oc2cc(N(CCF)S(C)(=O)=O)c(-c3cccc(C(=O)N4CCN(c5ccccc5)CC4)c3)cc12 [Compound 3025] | < 0.1 | 
CNC(=O)c1c(-c2ccc(F)cc2)oc2cc(N(CCF)S(C)(=O)=O)c(-c3cccc(C(=O)N4[C@@H](COC)CC[C@@H]4COC)c3)cc12 [Compound 3026] | 0.1 to 1 | 0.332
CCC1CCCN1C(=O)c1cccc(-c2cc3c(C(=O)NC)c(-c4ccc(F)cc4)oc3cc2N(CCF)S(C)(=O)=O)c1 (stereo not drawn) [Compound 3027] | < 0.1 | 
CNC(=O)c1c(-c2ccc(F)cc2)oc2cc(N(CCF)S(C)(=O)=O)c(-c3cccc(C(=O)N4CCN(C(=O)OC(C)(C)C)CC4)c3)cc12 [Compound 3028] | < 0.1 | 
CNC(=O)c1c(-c2ccc(F)cc2)oc2cc(N(CCF)S(C)(=O)=O)c(-c3cccc(C(=O)N4CCC[C@H]4C(=O)OC(C)(C)C)c3)cc12 [Compound 3029] | < 0.1 | 
CNC(=O)c1c(-c2ccc(F)cc2)oc2cc(N(CCF)S(C)(=O)=O)c(-c3cccc(C(=O)N4CCC[C@@H]4CO)c3)cc12 [Compound 3030] | 0.1 to 1 | 0.139
CNC(=O)c1c(-c2ccc(F)cc2)oc2cc(N(CCF)S(C)(=O)=O)c(-c3cccc(C(=O)N4CCN(C(=O)OC(C)(C)C)CC4c4ccccc4)c3)cc12 (stereo not drawn) [Compound 3031] | < 0.1 | 
CNC(=O)c1c(-c2ccc(F)cc2)oc2cc(N(CCF)S(C)(=O)=O)c(-c3cccc(C(=O)N4CCN(c5cccnc5)CC4)c3)cc12 [Compound 3032] | > 1 | 2.64
CNC(=O)c1c(-c2ccc(F)cc2)oc2cc(N(CCF)S(C)(=O)=O)c(-c3cccc(C(=O)N4CCN(CC(C)C)CC4)c3)cc12 [Compound 3033] | < 0.1 | 
